Measurements from patent EP0497921B1, “METHOD FOR INHIBITING ENZYMATIC SYNTHESIS OF NUCLEIC ACIDS USING ISOPSORALENS” (ISAACS, Stephen T., priority 1989, dated 1991).
Converted amounts (≈) assume the structure as drawn. Like-named read-outs stand apart in the source and are kept apart here. One block for each compound: values may come before it.

Tests used:
human placental DNA = test: PCR amplification with unirradiated AMDMIP and DMSO co-solvent; type: biochemical; settings: no AMDMIP, average of duplicates, 139,000 at 0% DMSO
Protocol: In this example, the effect of DMSO on PCR amplification in the presence of high concentrations of sterilizing compound (AMDMIP) was investigated. Samples were prepared for PCR which contained 1 µg of human placental DNA either with or without (unirradiated) AMDMIP (200 µg/ml). The samples were amplified 30 cycles under standard PCR conditions in the presence of 0%, 1%, 5% or 10% DMSO. The reaction mix contained α-^32P-dCTP. Following amplification, the samples were analyzed by PAGE (data not shown).

[1] = water; cited from earlier work
Taq polymerase = Taq polymerase (Thermus aquaticus, UniProt P19821); test: Primer extension on 71-mer after random addition of compound or addition of photoproduct; type: biochemical
Source text: In this experiment, the ability of AMIP, AMDMIP and MIP to block replication of 71-mer is investigated by randomly adding each compound to the 71-mer. of course, addition may only be random in the sense that one or more adducts may be formed with any one strand of nucleic acid. The actual placement of the isopsoralen may be governed by preferential binding at particular sites (e.g. A:T). In addition to blockage by random adducts, photoproducts of the various isopsoralens may be providing an inhibitory effect. No attempt to separate the effects of photoproduct from the effects of covalent adducts on the 71-mer template was made in this series of experiments.
In these experiments, the 71-mer template (10^-9 M) was primed with ^32P-SK-39 (10^-8) and extended with Taq polymerase in a total volume of 20 µl. The dNTP concentration was 200 µM. In the control samples, the 71-mer, the primer, and the dNTPs were mixed in Taq buffer in a volume of 18 µl. These samples were initially denatured at 95°C for 5 minutes, followed by equilibration at 550C for 3 minutes. Taq enzyme was then added (0.5 units) and the extension reaction was carried out for 5 minutes at 55°C. The reaction was stopped by making the solution 10 mM in EDTA. In another set of samples, the 71-mer in 10 µl was mixed with either AMIP (200 µg/ml), AMDMIP (200 µg/ml), or MIP (60 µg/ml). Half of these samples were irradiated for 15 minutes on the CE-I device at 25°C. The other half was kept in the dark as controls. These samples were then mixed with the primer and dNTPs as before, and were subjected to the same thermal profile and extension reactions as the samples that were described earlier. The results were examined by PAGE. The extended product bands were identified by autoradiography, excised and counted (data not shown).
In this experiment, the ability of two different Phenylazide derivatives (see Table 1), photobiotin (Vector Labs) and monoazide ethidium chloride, to block replication of 71-mer was investigated by randomly adding each compound to the 71-mer. Again, addition may only be random in the sense that one or more adducts may be formed with any one strand of nucleic acid. The actual placement of these compounds may be governed by preferential binding at particular sites (e.g. A:T). In addition to blockage by random adducts, there may be inhibition by photoproducts. As in Example 23, no attempt was made to separate the impact of photoproducts from that of covalent binding of photoreactive compound on the 71-mer.
The two compounds, photobiotin and monoazide ethidium chloride, have different spectral characteristics. To activate these compounds, two different wavelength regions were selected using a single light source (General Electric Sunlamp, Model RSM, 275 watt). The light source was positioned 10 cm above uncapped Eppendorph tubes which contained samples to be irradiated. The samples were kept on ice during irradiation. A pyrex dish was placed between the lamp and the samples.
For samples containing photobiotin, 2.5 cm of water was added to the pyrex dish to help remove some of the infrared radiation. The samples were irradiated for 15 minutes.
For samples containing monoazide ethidium chloride, wavelengths less than 400 nm were filtered out by using 2.5 cm of an aqueous solution of 2.9 M NaNO2. Removal of short wavelengths (i.e. wavelengths shorter than 400 nm) is necessary for the use of monoazide ethidium chloride. Irradiation of this compound with shorter wavelengths results in conversion to non-active forms (data not shown). Wavelengths below 400 nm are therefore undesirable for use with this compound.
In this experiment, the 71-mer template (2 x 10^-9 M) in 10 µl was mixed with either no photoreactive compound, photobiotin (6 x 10^-6 M), or monoazide ethidium (1.4 x 10^-3 M). Half of each of these samples were irradiated on ice for 15 minutes with wavelengths appropriate for each specific photoreactive compound. […]

HIV 115-mer = test: PCR with pre-irradiated photobiotin or monoazide ethidium chloride; type: biochemical
Protocol: In this experiment, photobiotin and monoazide ethidium chloride were tested as PCR sterilization reagents. The temporal steps were performed to examine photoproduct effects (if any). Solutions of photobiotin and monoazide ethidium chloride were made up in 1 x Taq buffer. Concentrations of photobiotin ranged form 7 x 10^-4 M to […]: concentrations of the monoazide ethidium chloride ranged from 3 x 10^-9 M to 3 x 10^-10M. […] Each compound solution was divided into two parts: One part was irradiated under a GE sunlamp through a pyrex filter (300nm cut-off); the other half was irradiated under a GE sunlamp through a 2.9 M NaNO2 liquid filter (400 nm cut-off). Irradiations were carried out on ice for 15 minutes. After irradiation, aliquots of each tube were carried over into tubes containing PCR reagents and target (HIV 115-mer); PCR was then carried out for 30 cycles in the presence of α-^32P-dCTP. After amplification aliquots were analyzed on 12% acrylamide/8M urea gels.

[2] = tested on: DNA polymerase I from E. coli. B; settings: cited from earlier work; for template activity lost by modified DNA: C.M. Ou et al., covalently modified DNA
Taq I DNA polymerase = test: Primer extension on site-specific 71-mer monoadduct template; type: biochemical, Thermus aquaticus; settings: 55°C; 0.5, 1.0, 5.0 mins; PAGE, autoradiography
Protocol: In this experiment, monoadducted 71-mers (as well as unmodified 71-mers) were used in template-dependent enzymatic extension. AMIP, AMDMIP, and MIP 71-mer monoadducts were made as in Example 17. Extension was carried out as in Example 18 except that in this experiment, Taq I DNA polymerase, a thermostable DNA polymerase isolated from Thermus aquaticus (Stratagene, Inc., La Jolla, CA) was assessed for its ability to read past isopsoralens.
The reaction mixture was in 80 µl total volume and comprised 1 x Taq buffer, 200 µM each of dNTP's, 0.05 units of Taq per µl of reaction volume; 1 x 10^-9 M in 71-mer MA; 1 x 10^-8 M in ^32P-labelled SK-39. Each reaction was set up with everything except Taq polymerase. The samples were initially heated to 95°C for 5 mins, then incubated at 55°C for 3 mins. The extension reaction was initiated by addition of Taq polymerase. At the indicated time points (0.5, 1.0, 5.0 mins), 20 µl of the reaction mix was removed to a tube containing 1 µl of 0.5 M EDTA to stop the reaction. All products were analyzed on a 20% polyacrylamide, 7 M urea gel followed by autoradiography.
This experiment investigated whether blocking of Taq polymerase by monoadducts is complete or whether monoadducts can be bypassed by the enzyme. In order to view the process of bypass synthesis, it is necessary to cycle the extension reaction of the primer with the 71-mer templates. Cycling in this case consists of mixing the primer with the 71-mer template, adding Taq polymerase and appropriate reagents, extending, heating to induce strand separation, reannealing of the primer to the 71-mer template, extending again, and subsequent stand separation. This process can be repeated as necessary. During this process, only the complement of the 71-mer template is being synthesized. It is accumulating in a linear fashion with the number of thermal cycles (in contrast to PCR where both strands are being synthesized and accumulate geometrically).
The templates and reaction conditions were as in Example 19 above except that three samples were used for each monoadduct and each sample was tested under different conditions: • Samples (1): one sample for each monoadduct was used to carry out extension at 55°C as in Example 43; • Samples (2): one sample for each monoadduct was used to carry out extension by the following series of steps: denaturing at 95°C; incubating for 30 seconds at 55°C; adding Taq polymerase for 3 minutes at 550C; cooling the reaction for 1 minute at 7°C; stopping the reaction with EDTA for one minute at 95°C: • Samples (3): one sample for each monoadduct was used to carry out extension by repeating the following series of steps nine times: denaturing at 95°C; incubating for 30 seconds at 55°C; adding Taq polymerase for 3 minutes at 55°C; cooling the reaction for 1 minute at 7°C. At the end, the reaction is stopped with EDTA for one minute at 95°C.
To investigate this question further, a new 5-MIP monoadducted 71-mer was prepared by repurification of the HPLC purified 5-MIP monoadducted 15-mer by PAGE. In this way, more of the non-monoadducted 15-mer was removed prior to ligation. The purified 71-mer was then used as template in an extension experiment as described in Example 20. After 10 cycles, there was still evidence of extension product (Figure 34).
Monoadducted 71-mer was constructed as described, but for HMT. Extension was carried out and analyzed as before on PAGE. […] Full length 71-mer is not made and a shorter strand corresponding to the position of the HMT adduct was made.

[3] = tested on: Hind-III restriction fragments of lambda DNA; test: Photobinding of BIODMIP to lambda DNA fragments; type: binding; settings: 100 µg/ml plus 50 µg additional; two 30 minute irradiations at room temperature with the PTI device
Protocol: BIODMIP (100 µg/ml) was irradiated for 30 minutes at room temperature with the PTI device in 500 µl of 1 x TE buffer with 2 µg of Hind-III restriction fragments of lambda DNA. After the first irradiation, the mixture was transferred to a new tube containing 50 µg additional BIODMIP and this was incubated at 37°C for one hour to dissolve the compound. This was followed by a second 30 minute irradiation at room temperature with the PTI device. It was observed that, under these conditions BIODMIP added to the DNA at a ratio of 1 covalently bound BIODMIP per 20 base pairs.

[4] = Solubility of photoreactive compounds in 1 X TE (optical density of filtrate); type: physicochemical; settings: nd = not detectable (solubility was less than 1 µg/ml)
Protocol: The solubilities of AMIP, AMDMIP, DMIP, MIP and isopsoralen (IP) were determined experimentally according to the scheme set forth in Figure 5. To perform the solubility measurement, it was first necessary to establish known optical densities for a 1 µg/ml solution of each compound. These were determined by preparing either ethanolic or aqueous stocks of each compound at known concentrations in 1 x TE, then measuring the optical density of each solution. From this information, the absorption of a 1 µg/ml solution was computed. Alternatively, the extinction coefficient may be thus determined and used in the same fashion. In this manner, the following absorption data was collected:
Following this step, undissolved compound was removed by filtration using a 0.2 u nylon-66 syringe filter (Arco LC13; Gelman). The concentration of the remaining soluble compound was then determined by measuring the optical density of the filtrate and computing the solubility from the known optical density of a 1 µg/ml solution of that compound. The solubility of the compounds was thus determined to be as follows: […]

Chain of Taq polymerase (P19821 whole entry): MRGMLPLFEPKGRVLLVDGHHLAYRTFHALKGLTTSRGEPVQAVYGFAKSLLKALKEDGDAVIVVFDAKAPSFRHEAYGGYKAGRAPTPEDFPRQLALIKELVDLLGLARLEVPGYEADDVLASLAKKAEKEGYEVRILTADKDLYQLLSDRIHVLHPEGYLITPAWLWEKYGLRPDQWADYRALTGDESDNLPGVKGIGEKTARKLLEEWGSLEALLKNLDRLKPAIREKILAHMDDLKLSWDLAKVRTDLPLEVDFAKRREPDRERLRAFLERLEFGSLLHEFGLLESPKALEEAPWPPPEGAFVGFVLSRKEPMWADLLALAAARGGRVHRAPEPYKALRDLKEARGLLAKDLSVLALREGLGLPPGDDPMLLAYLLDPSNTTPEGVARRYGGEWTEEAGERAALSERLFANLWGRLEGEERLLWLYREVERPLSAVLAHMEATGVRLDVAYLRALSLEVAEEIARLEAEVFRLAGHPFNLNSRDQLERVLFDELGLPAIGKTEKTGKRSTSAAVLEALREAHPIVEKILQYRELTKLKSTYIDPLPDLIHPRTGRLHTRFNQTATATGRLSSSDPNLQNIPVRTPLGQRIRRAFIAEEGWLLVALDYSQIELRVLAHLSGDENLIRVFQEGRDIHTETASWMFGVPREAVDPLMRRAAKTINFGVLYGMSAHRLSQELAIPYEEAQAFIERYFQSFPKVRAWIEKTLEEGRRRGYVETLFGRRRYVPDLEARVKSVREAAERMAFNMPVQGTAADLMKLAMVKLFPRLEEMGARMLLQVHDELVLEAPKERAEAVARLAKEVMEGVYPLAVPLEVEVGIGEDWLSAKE

Compound: C[S+](C)[O-] [DMSO, dimethyl sulfoxide]
- CPM of product bands (human placental DNA; 1% DMSO): 137,000 CPM
- CPM of product bands (human placental DNA; 5% DMSO): 94,000 CPM
- CPM of product bands (human placental DNA; 10% DMSO): 76,000 CPM

Compound: Cc1cc2c(ccc3c(C)cc(=O)oc32)o1 [DMIP, 4,5'-Dimethylisopsoralen]
- maximum aqueous solubility [1]: 8 µg/mL

- extension after irradiation (Taq polymerase; photobiotin (6 x 10^-6 M), irradiated on ice for 15 minutes, GE sunlamp): inhibition only after irradiation
Compound: CN(CCCNC(=O)CCCC[C@@H]1SC[C@@H]2NC(=O)N[C@@H]21)CCCNc1ccc(N=[N+]=[N-])cc1[N+](=O)[O-] [photobiotin, reference compound]
- concentration at which pre-irradiated compound shut down PCR (HIV 115-mer; highest concentration used, 115-mer amplified at all lower concentrations): 700 µM

Compound: COc1cc(OC)c2ccc(=O)oc2c1 [DMC, 5,7-dimethoxycoumarin]
- template activity lost by modified DNA [2]: 50%

Compound: Cc1oc2c(C)c3oc(=O)cc(C)c3cc2c1CO [HMT, 4'-hydroxymethyl-4,5',8-trimethylpsoralen]
- Taq polymerase extension on 71-mer monoadduct template (Taq I DNA polymerase): stop Taq polymerase
- inhibition of E. Coli polymerase I by covalently bound monoadducts ([2]; Piette and Hearst 1983, nick-translating a double-stranded template): not inhibited
- inhibition of E. Coli polymerase I by covalently bound monoadducts ([2]; Piette and Hearst 1985, single-stranded template (bacteriophage DNA)): inhibited

Compound: COc1c2occc2cc2ccc(=O)oc12 [Compound 8-MOP, 8-methoxypsoralen]
- template activity lost by modified DNA [2]: 97%

- ratio of 1 covalently bound BIODMIP per n base pairs [3]: 20 base pairs
Compound: Cc1oc2ccc3c(C)cc(=O)oc3c2c1CN(C)CCCCCCN(C)C(=O)CCCCCNC(=O)CCCC[C@@H]1SC[C@@H]2NC(=O)N[C@@H]21 [BIODMIP, 4'-N-[N,N'-dimethyl-N'-(6-{biotinamido} -hexanoate)-1,6-hexanediamine] -methyl-4,5'-dimethylisopsoralen]

Compound: monoazide ethidium chloride [reference compound]
- extension, dark control (Taq polymerase; photobiotin (6 x 10^-6 M) or monoazide ethidium (1.4 x 10^-3 M), kept in the dark): inhibition of extension
- inhibition of PCR by pre-irradiated compound (HIV 115-mer; irradiated on ice 15 minutes under GE sunlamp before addition to PCR, 30 cycles): does not inhibit PCR

Compound: O=c1ccc2ccc3occc3c2o1 [IP, isopsoralen]
- Solubility in 1 X TE [4]: 2 µg/mL (≈ 10.7 µM)
